Assay: xn = mol fraction of the nth substance listed, in the solute-free solvent

CC(=O)N1CCN(c2ccc(OCC3COC(Cn4ccnc4)(c4ccc(Cl)cc4Cl)O3)cc2)CC1 (configuration not stated) + CC#N + O
solubility (g/100 g solution)
Details | x2 = 0.04651 | x2 = 0.0989 | x2 = 0.1583 | x2 = 0.2264 | x2 = 0.3051 | x2 = 0.397 | x2 = 0.506 | x2 = 0.6372 | x2 = 0.798
293.15 K | 0.0181 | 0.108 | 0.587 | 2.22 | 5.12 | 9.21 | 11.9 | 10 | 4.67
298.15 K | 0.0214 | 0.122 | 0.681 | 2.63 | 6.07 | 10.5 | 13 | 11.2 | 5.65
303.15 K | 0.024 | 0.137 | 0.794 | 2.95 | 6.89 | 11.7 | 14.2 | 12.5 | 6.84
308.15 K | 0.0263 | 0.157 | 0.888 | 3.36 | 7.88 | 12.9 | 15.4 | 13.6 | 7.71
313.15 K | 0.0283 | 0.177 | 0.992 | 3.72 | 8.81 | 13.8 | 16.5 | 14.9 | 8.58

c1ccc2[nH]c(-c3cscn3)nc2c1 + CC#N + O
solubility (g/100 g solution)
Details | 283.15 K | 288.15 K | 293.15 K | 298.15 K | 303.15 K | 308.15 K | 313.15 K | 318.15 K | 323.15 K
x2 = 0.04651 | 0.00121 | 0.00153 | 0.00195 | 0.00251 | 0.00312 | 0.00391 | 0.00486 | 0.00604 | 0.00759
x2 = 0.0989 | 0.00381 | 0.0048 | 0.0062 | 0.00795 | 0.00993 | 0.0122 | 0.0152 | 0.0184 | 0.0223
x2 = 0.1583 | 0.00804 | 0.0102 | 0.013 | 0.0163 | 0.0204 | 0.0251 | 0.0307 | 0.0373 | 0.0446
x2 = 0.2264 | 0.0137 | 0.0175 | 0.0219 | 0.027 | 0.0332 | 0.0403 | 0.0487 | 0.0587 | 0.0699
x2 = 0.3051 | 0.0203 | 0.0246 | 0.0311 | 0.0385 | 0.0467 | 0.0564 | 0.0675 | 0.0804 | 0.0944
x2 = 0.397 | 0.0272 | 0.0332 | 0.0403 | 0.049 | 0.0593 | 0.0713 | 0.0845 | 0.1 | 0.118
x2 = 0.506 | 0.0343 | 0.0409 | 0.0505 | 0.0604 | 0.0718 | 0.0849 | 0.1 | 0.121 | 0.141
x2 = 0.6372 | 0.0418 | 0.0499 | 0.0602 | 0.0732 | 0.0874 | 0.103 | 0.123 | 0.145 | 0.168
x2 = 0.798 | 0.0476 | 0.0573 | 0.0693 | 0.0823 | 0.0998 | 0.118 | 0.14 | 0.163 | 0.188

Nc1ccc(Oc2ccc(N)cc2)cc1 + CC(=O)N(C)C + CCO
solubility (g/100 g solution)
Details | 293.15 K | 298.15 K | 303.15 K | 308.15 K | 313.15 K | 318.15 K | 323.15 K | 328.15 K | 333.15 K
x2 = 0.0555 | 0.741 | 0.782 | 0.905 | 1.15 | 1.39 | 1.68 | 1.96 | 2.28 | 2.64
x2 = 0.1168 | 1.32 | 1.4 | 1.59 | 1.94 | 2.32 | 2.66 | 3 | 3.15 | 4.12
x2 = 0.1848 | 2.35 | 2.56 | 2.88 | 3.13 | 3.63 | 4.09 | 4.68 | 4.75 | 6.13
x2 = 0.2606 | 3.91 | 4.24 | 4.6 | 5.13 | 5.62 | 6.3 | 7.13 | 7.67 | 8.79
x2 = 0.3459 | 6.23 | 6.74 | 7.16 | 7.94 | 8.38 | 9.29 | 10.3 | 11 | 12.2
x2 = 0.4423 | 9.4 | 10 | 10.6 | 11.4 | 12 | 13.1 | 14 | 15.2 | 16.3
x2 = 0.5523 | 13.3 | 14.1 | 14.8 | 15.3 | 16.3 | 17.5 | 18.6 | 19.7 | 21.1
x2 = 0.679 | 17.9 | 18.6 | 19.3 | 20.2 | 21 | 22 | 23.2 | 24.2 | 25.1
x2 = 0.8264 | 22.6 | 23.5 | 24 | 24.5 | 25.6 | 26.7 | 27.4 | 28.7 | 30

CN1CCN(C2=Nc3cc(Cl)ccc3Nc3ccccc32)CC1 + CC(C)=O + Cc1ccccc1
solubility (g/100 g solution)
Details | x2 = 0.1503 | x2 = 0.2841 | x2 = 0.4047 | x2 = 0.5141 | x2 = 0.6136 | x2 = 0.7038 | x2 = 0.7876 | x2 = 0.8642 | x2 = 0.9343
293.15 K | 4.2 | 5.72 | 6.98 | 7.87 | 8.37 | 8.49 | 8.42 | 8.02 | 7.41
298.15 K | 4.59 | 6.06 | 7.92 | 8.77 | 9.44 | 9.83 | 9.53 | 9.03 | 8.42
303.15 K | 5.42 | 7.16 | 8.86 | 9.9 | 10.6 | 10.7 | 9.99 | 9.78 | 8.81
308.15 K | 6.11 | 8.41 | 9.86 | 10.9 | 11.9 | 12.3 | 11.6 | 11.3 | 10.4
313.15 K | 7.38 | 9.81 | 11.5 | 12.7 | 13.4 | 13.6 | 13.4 | 12.9 | 11.9
318.15 K | 8.97 | 11.4 | 13.2 | 14.3 | 15.4 | 15.3 | 15.5 | 14.8 | 13.4

CC(C)OC(=O)C(C)NP(=O)(OCC1OC(n2ccc(=O)[nH]c2=O)C(C)(F)C1O)Oc1ccccc1 (configuration not stated) + CC(C)=O + O
solubility (g/100 g solution)
Details | 278.15 K | 283.15 K | 288.15 K | 293.15 K | 298.15 K | 303.15 K | 308.15 K | 313.15 K | 318.15 K
x2 = 0.03333 | 0.447 | 0.659 | 0.884 | 1.19 | 1.57 | 2.08 | 2.72 | 3.52 | 4.39
x2 = 0.07199 | 1.86 | 2.63 | 3.43 | 4.47 | 5.72 | 7.3 | 9.16 | 11.4 | 13.7
x2 = 0.1174 | 3.81 | 5.24 | 6.7 | 8.54 | 10.7 | 13.3 | 16.2 | 19.6 | 23.1
x2 = 0.1714 | 5.39 | 7.25 | 9.19 | 11.6 | 14.2 | 17.4 | 21 | 25.1 | 29.1
x2 = 0.2368 | 6.68 | 8.82 | 11.1 | 13.8 | 16.9 | 20.4 | 24.2 | 28.4 | 32.6
x2 = 0.3176 | 8.37 | 10.8 | 13.6 | 16.7 | 20.2 | 24 | 28.1 | 32.4 | 36.8
x2 = 0.42 | 11.2 | 14.2 | 17.5 | 21.1 | 24.9 | 28.9 | 33.3 | 37.8 | 42.6
x2 = 0.5538 | 15 | 18.1 | 21.8 | 26.1 | 30.7 | 35.3 | 40.1 | 45 | 49.6
x2 = 0.7363 | 18.3 | 22.9 | 27.4 | 32.1 | 37.1 | 42.2 | 47 | 51.8 | 56.6

S=c1[nH]ncs1 + CC(C)=O + O
solubility (g/100 g solution)
Details | 278.15 K | 283.15 K | 288.15 K | 293.15 K | 298.15 K | 303.15 K | 308.15 K | 313.15 K | 318.15 K | 323.15 K
x2 = 0.1 | 1.78 | 2.36 | 2.99 | 3.78 | 4.76 | 6 | 7.45 | 9.31 | 11.5 | 14.2
x2 = 0.2 | 6.07 | 7.41 | 8.84 | 10.6 | 12.5 | 14.8 | 17.3 | 20.2 | 23.6 | 27.1
x2 = 0.3 | 11.4 | 13.3 | 15.3 | 17.4 | 19.6 | 22.2 | 24.9 | 28.1 | 30.9 | 34.4
x2 = 0.4 | 15.7 | 17.9 | 20.2 | 22.5 | 24.8 | 27.1 | 29.6 | 32.5 | 35.3 | 38.5
x2 = 0.5 | 19.8 | 21.7 | 23.7 | 25.6 | 27.8 | 30.3 | 32.6 | 34.8 | 37.3 | 40.1
x2 = 0.6 | 22 | 23.6 | 25.6 | 27.3 | 29.3 | 31.4 | 33.2 | 35.3 | 37.6 | 39.8
x2 = 0.7 | 22.6 | 24.3 | 26.2 | 27.7 | 29.5 | 31.4 | 33.2 | 35 | 37.1 | 39.3
x2 = 0.8 | 23.1 | 24.5 | 25.9 | 27.4 | 29.1 | 30.8 | 32.5 | 34 | 35.7 | 37.4
x2 = 0.9 | 21.4 | 22.6 | 24.2 | 25.6 | 27.2 | 28.6 | 30.4 | 32.1 | 33.7 | 35.3

CC(C)=CCCC(C)C1CCC2(C)C3=C(CCC12C)C1(C)CCC(O)C(C)(C)C1CC3 (configuration not stated) + CC(C)O + O
solubility (g/100 g solution)
Details | 278.15 K | 288.15 K | 298.15 K | 308.15 K | 318.15 K
x2 = 0.01234 | 2.03e-05 | 2.81e-05 | 3.2e-05 | 3.94e-05 | 5.13e-05
x2 = 0.09088 | 0.000156 | 0.000176 | 0.000221 | 0.00024 | 0.000254
x2 = 0.2604 | 0.0158 | 0.0209 | 0.0306 | 0.0368 | 0.0456
x2 = 0.6874 | 0.147 | 0.272 | 0.373 | 0.472 | 0.64

Cc1[nH]c(=O)c(C#N)cc1-c1ccncc1 + CC(C)O + O
solubility (g/100 g solution)
Details | 278.15 K | 283.15 K | 288.15 K | 293.15 K | 298.15 K | 303.15 K | 308.15 K | 313.15 K | 318.15 K | 323.15 K
x2 = 0.03225 | 0.00105 | 0.00126 | 0.00148 | 0.00173 | 0.00202 | 0.00231 | 0.00261 | 0.00296 | 0.00333 | 0.00376
x2 = 0.06974 | 0.00174 | 0.00206 | 0.00243 | 0.00283 | 0.0033 | 0.00374 | 0.00423 | 0.00479 | 0.00537 | 0.00604
x2 = 0.1139 | 0.00266 | 0.00311 | 0.00366 | 0.00429 | 0.00498 | 0.00565 | 0.00635 | 0.00712 | 0.00801 | 0.00906
x2 = 0.1666 | 0.00378 | 0.00445 | 0.00523 | 0.00608 | 0.00705 | 0.00798 | 0.009 | 0.0102 | 0.0114 | 0.0128
x2 = 0.2307 | 0.00502 | 0.00587 | 0.00684 | 0.00797 | 0.00927 | 0.0105 | 0.0119 | 0.0135 | 0.0151 | 0.017
x2 = 0.3103 | 0.00629 | 0.00741 | 0.00871 | 0.0101 | 0.0118 | 0.0133 | 0.015 | 0.0171 | 0.019 | 0.0214
x2 = 0.4117 | 0.00743 | 0.00875 | 0.0102 | 0.0119 | 0.0137 | 0.0155 | 0.0178 | 0.02 | 0.0224 | 0.0256
x2 = 0.5454 | 0.0083 | 0.00978 | 0.0115 | 0.0135 | 0.0155 | 0.0177 | 0.02 | 0.0226 | 0.0256 | 0.0291
x2 = 0.7297 | 0.00873 | 0.0102 | 0.012 | 0.0141 | 0.0163 | 0.0188 | 0.0214 | 0.0243 | 0.0274 | 0.0314

— the CheMixHub drug solubility set
